Results: patent publication CN105267200A, “一种黄酮类化合物的应用” (Shanghai Institute of Organic Chemistry of CAS, priority 2014, dated 2016)

Target: T1, mTORC1 (Homo sapiens, UniProt P42345)
T1 construct: purchased sigma试剂有限公司 (Sigma) SRP0364
Experiment: mTORC1 enzyme activity inhibition (phosphorylation of 5-FAM substrate peptide STTPGGTLFSTTPG), capillary electrophoresis with laser-induced fluorescence
Format: biochemical
Conditions: mTORC1 31.1 nM, substrate peptide 2 μM, 20 min; for inhibition at 1.25 µM: compound 1.25 μM, read-out: inhibition of the catalytic activity of mTORC1

T1 sequence (P42345 1362-2549 limits assumed): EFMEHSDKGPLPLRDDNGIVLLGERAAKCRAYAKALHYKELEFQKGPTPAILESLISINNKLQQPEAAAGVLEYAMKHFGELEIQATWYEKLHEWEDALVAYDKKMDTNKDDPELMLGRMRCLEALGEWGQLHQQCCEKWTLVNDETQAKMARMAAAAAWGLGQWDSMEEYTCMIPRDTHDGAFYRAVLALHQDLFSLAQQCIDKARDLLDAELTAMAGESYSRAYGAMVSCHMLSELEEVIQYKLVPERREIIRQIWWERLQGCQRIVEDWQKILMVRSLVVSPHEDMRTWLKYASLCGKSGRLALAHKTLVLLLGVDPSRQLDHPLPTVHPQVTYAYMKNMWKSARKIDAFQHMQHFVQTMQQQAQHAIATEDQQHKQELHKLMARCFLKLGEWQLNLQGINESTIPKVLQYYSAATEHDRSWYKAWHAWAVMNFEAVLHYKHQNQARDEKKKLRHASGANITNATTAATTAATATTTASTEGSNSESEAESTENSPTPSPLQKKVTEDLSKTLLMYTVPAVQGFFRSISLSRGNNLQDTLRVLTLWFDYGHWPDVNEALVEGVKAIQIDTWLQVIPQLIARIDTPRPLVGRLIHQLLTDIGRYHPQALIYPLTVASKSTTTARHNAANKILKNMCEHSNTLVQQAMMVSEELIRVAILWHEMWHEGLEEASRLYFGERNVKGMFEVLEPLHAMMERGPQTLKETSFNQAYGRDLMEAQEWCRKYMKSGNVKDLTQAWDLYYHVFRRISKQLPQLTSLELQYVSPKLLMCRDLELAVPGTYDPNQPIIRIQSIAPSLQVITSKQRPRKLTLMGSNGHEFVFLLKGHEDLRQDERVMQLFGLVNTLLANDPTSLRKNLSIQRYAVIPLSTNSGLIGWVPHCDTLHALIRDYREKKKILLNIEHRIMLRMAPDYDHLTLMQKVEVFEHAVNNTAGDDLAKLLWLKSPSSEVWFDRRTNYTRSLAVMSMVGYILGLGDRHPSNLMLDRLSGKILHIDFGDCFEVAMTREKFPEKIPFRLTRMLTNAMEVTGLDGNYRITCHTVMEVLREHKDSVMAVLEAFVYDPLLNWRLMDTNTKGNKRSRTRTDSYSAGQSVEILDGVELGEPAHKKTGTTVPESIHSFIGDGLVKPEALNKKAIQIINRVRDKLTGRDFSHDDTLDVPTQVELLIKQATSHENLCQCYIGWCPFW

Row | inhibition at 1.25 µM [%] | Compound | IC50 (nonlinear fit Origin 8.0) [µM] | inhibition percentage (quercetin 0.05 nmol/L) [%] | inhibition percentage (quercetin 0.5 nmol/L) [%] | inhibition percentage (quercetin 5 nmol/L) [%] | inhibition percentage (quercetin 50 nmol/L) [%] | inhibition percentage (quercetin 250 nmol/L) [%] | inhibition of mTORC1 phosphorylation of the substrate peptide (in words, electropherogram Fig. 1C) (quercetin 0.5 μM, 25℃) | inhibition percentage (quercetin 500 nmol/L) [%] | inhibition percentage (quercetin 5×10^3 nmol/L) [%] | inhibition percentage (quercetin 5×10^4 nmol/L) [%] | inhibition percentage (quercetin 5×10^5 nmol/L) [%]
1 |  | O=c1c(O)c(-c2ccc(O)c(O)c2)oc2cc(O)cc(O)c12 [槲皮素] | 0.377 | 0 | 0 | 0 | 8 | 47 | 可以有效抑制 | 53 | 97 | 100 | 100
2 | 25 | O=c1c(O[C@@H]2O[C@H](CO)[C@H](O)[C@H](O)[C@H]2O)c(-c2ccc(O)c(O)c2)oc2cc(O)cc(O)c12 [金丝桃苷, reference compound] |  |  |  |  |  |  |  |  |  |  | 
3 | 25 | O=c1cc(-c2ccccc2)oc2cc(O)c(O)c(O)c12 [黄芩素, reference compound] |  |  |  |  |  |  |  |  |  |  | 
